This is an account of results in patent US8778970B2, “Benzyl piperidine compound” (Dainippon Sumitomo Pharma Co., Ltd, priority 2009, dated 2014).

Structures are written as SMILES.

Data set [1] has as its target T1, CYP2D6 (Homo sapiens (Human), UniProt P10635). Put plainly: CYP2D6 inhibition screening test (bufuralol 1'-hydroxylation, pooled human liver microsomes). The following applies: substrate bufuralol, 37° C. 10 min. Type of data set: in vitro ADME. Here is the method:
CYP2D6 Inhibition Screening Test
Bufuralol hydrochloride was purchased from Toronto Research Chemicals Inc., and pooled human liver microsomes were purchased from Xenotech, LLC.
Bufuralol hydrochloride was dissolved in DMSO at a concentration of 1.0 mM and then diluted 20-fold with distilled water.
• 1. A 10 mM solution of a test drug in DMSO was serially diluted with DMSO at four 5-fold dilutions to prepare 10, 2, 0.4 and 0.08 mM DMSO solutions. • 2. Each test drug solution of step 1 or DMSO was diluted 160-fold with the human liver microsome solution and dispensed at a concentration of 80 μL/well to a microplate. • 3. 10 μL of the substrate solution and 10 μL of the β-NADPH solution were added to each well of step 2, and the mixture was incubated at 37° C. for 10 min. • 4. The reaction was terminated by the addition of 300 μL of methanol. • 5. The reaction mixture was filtered and analyzed by LC-MS/MS. 3-4 Quantification and Calculation
The amount of 1′-hydroxybufuralol formed was determined by LC-MS/MS, and this value was used as the metabolic activity value of CYP2D6 in each well. The residual activity of each sample-supplemented group was determined by comparison with the activity in the well containing DMSO used as a test drug. IC50 values in CYP2D6 inhibition were determined from the test drug concentrations. […] The larger numeric value of IC50 in CYP2D6 inhibition means weaker CYP2D6 inhibition.
A general note: Liver microsomes are vesicles of endoplasmic reticulum, rich in cytochrome P450 enzymes.

In data set [2] the target is human serotonin transporter (h-SERT) (Homo sapiens (Human), UniProt P31645). Description: [3H] citalopram binding screening test for inhibitory effect on human serotonin reuptake. The following applies: h-SERT/CHO membrane preparation, [3H] citalopram approx. 2 nM; read-out: h-SERT binding inhibition constant (Ki). Here is the method: Screening Test Using [^3H] Citalopram Binding for Evaluating Inhibitory Effect on Human Serotonin Reuptake
Sequence of human serotonin transporter (h-SERT) (P31645 whole entry): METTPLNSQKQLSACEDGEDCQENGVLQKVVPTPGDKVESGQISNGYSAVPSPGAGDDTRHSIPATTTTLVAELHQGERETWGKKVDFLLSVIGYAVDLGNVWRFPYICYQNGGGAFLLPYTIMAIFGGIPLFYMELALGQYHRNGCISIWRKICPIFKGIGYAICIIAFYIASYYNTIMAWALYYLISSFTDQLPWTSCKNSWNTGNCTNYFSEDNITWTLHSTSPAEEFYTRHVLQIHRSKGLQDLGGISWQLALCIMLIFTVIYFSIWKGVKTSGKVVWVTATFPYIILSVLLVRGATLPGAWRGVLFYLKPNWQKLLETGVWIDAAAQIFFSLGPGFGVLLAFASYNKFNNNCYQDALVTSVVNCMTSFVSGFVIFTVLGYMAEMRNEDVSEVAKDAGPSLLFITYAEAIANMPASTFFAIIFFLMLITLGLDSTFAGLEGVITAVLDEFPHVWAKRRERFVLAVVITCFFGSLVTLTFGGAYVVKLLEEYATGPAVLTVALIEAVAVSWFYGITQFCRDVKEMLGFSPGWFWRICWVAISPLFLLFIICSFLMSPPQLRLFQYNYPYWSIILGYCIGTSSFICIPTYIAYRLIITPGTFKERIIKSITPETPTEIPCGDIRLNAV
1-1 Cells Used and Preparation of Membrane Preparation
CHO cells expressing a human serotonin transporter (h-SERT) (h-SERT/CHO) were used in the experiment. The cells were cultured in F12 containing 10% FCS, 500 μg/ml Geneticin and 100 U/ml penicillin-100 μg/ml streptomycin (all manufactured by Sigma-Aldrich Corp.) in a 5% CO2 incubator. The cells dissociated and collected therefrom using SERT buffer (50 mM Tris-HCl containing 120 mM NaCl and 5 mM KCl (pH=7.4)) were homogenized using a Teflon (R) homogenizer and then centrifuged (50,000×g, 30 min, 4° C.). The precipitate was resuspended in an appropriate amount of SERT buffer and stored at −80° C. until use. The amount of the protein in the membrane preparation were determined using bovine serum albumin (manufactured by Sigma-Aldrich Corp.) as standards and Dye Reagent Concentrate (manufactured by Bio-Rad Laboratories, Inc.).
1-2 Receptor Binding Experiment
[^3H] citalopram binding was assayed according to the method of Owens et al. [Owens M. J. et al., J. Pharm. […] Specifically, 50 μl of [^3H] citalopram (final concentration: approximately 2 nM) diluted with SERT buffer, 149 μl of the h-SERT/CHO membrane preparation (40 μg/well in terms of the amount of the protein), and 1 μl of a solution of a test drug dissolved in DMSO were added to prepare 200 μl in total of a solution. This solution was reacted at room temperature for 60 minutes and then immediately suction-filtered at a low pressure using a glass fiber filter paper coated with a 0.05% aqueous polyethyleneimine solution. The glass fiber filter paper was washed twice with 250 μl of SERT buffer and then transferred to a glass vial containing 4 ml of ACS-II (manufactured by GE Healthcare (formerly Amersham Biosciences)). Radioactivity remaining on the filter paper was measured using a liquid scintillation counter. The nonspecific binding of [^3H] citalopram was defined as a binding amount in the presence of 1 μM clomipramine.
The smaller numeric value of the h-SERT binding inhibition constant Ki means a higher inhibitory effect on human serotonin reuptake.

The target of data set [3] is T1, CYP2D6. Description: Screening test on contribution ratio of CYP2D6 in human liver microsomal metabolism. Type of data set: in vitro ADME. To be noted: 1 mg/mL human liver microsomes, 1 μM test substance, with/without 4 μM quinidine; values marked *) are reference values due to relative stability. As to the method:
Screening Test on Contribution Ratio of CYP2D6 in Human Liver Microsomal Metabolism
0.2 mL of a 50 mM potassium phosphate buffer (pH 7.4) containing 3 mM (final concentration) NADPH (manufactured by Oriental Yeast Co., Ltd.), 1 mg/mL human liver microsomes (manufactured by Xenotech, LLC) and 1 μM test substance was warmed in a water bath at 37° C. for metabolic reaction. After 15- or 30-minute reaction, the reaction was terminated by the addition of a 3-fold volume of methanol with respect to the reaction solution and subsequent stirring. This reaction solution was centrifuged to precipitate proteins. Then, the supernatant was collected and subjected to LC-MS/MS analysis. The results were analyzed as follows:
The test substance was quantified, and time-dependent change in its residual amount was logarithmically plotted. The rate of metabolism was calculated from the slope.
The ratio of the rate of metabolism in the presence of quinidine added at 4 μM (final concentration) to the reaction solution to that in the absence of quinidine was used as the contribution ratio of enzymes other than CYP2D6. The remaining portion was used as the contribution ratio of CYP2D6. Specifically, it was calculated according to the formula: Contribution ratio (%)={1−(Rate of metabolism [in the presence of quinidine]/Rate of metabolism [in the absence of quinidine])}×100 The smaller numeric value of the contribution ratio of CYP2D6 means the small contribution of CYP2D6.

Data set [4] has as its target human serotonin 1A receptor (h-5-HT1A) (Homo sapiens (Human), UniProt P08908). Description: [3H] 8-OH-DPAT binding test for affinity for human serotonin 1A receptor. The following applies: h-5-HT1A/CHO membrane preparation, [3H] 8-OH-DPAT 0.5 nM; read-out: h-5-HT1A binding inhibition constant (Ki). Here is the method: [^3H] 8-OH-DPAT Binding Test for Evaluating Affinity for Human Serotonin 1A Receptor
2-1 Cells Used and Preparation of Membrane Preparation
CHO cells expressing a human serotonin 1A receptor (h-5-HT1A) (h-5-HT1A/CHO) were used in the experiment. The cells were cultured in F12 containing 10% FCS, 500 μg/ml Geneticin and 100 U/ml penicillin-100 μg/ml streptomycin (all manufactured by Sigma-Aldrich Corp.) in a 5% CO2 incubator. Membrane preparation were prepared according to the method of Yabuuchi et al.^3). Specifically, the cells dissociated and collected therefrom using 50 mM Tris-HCl (pH=7.4) were homogenized using a Teflon® homogenizer and then centrifuged (48,000×g, 20 min, 4° C.). The precipitate was resuspended in an appropriate amount of 50 mM Tris-HCl (pH=7.4) and stored at −80° C. until use. The amount of the protein in the membrane preparation were determined using bovine serum albumin (manufactured by Sigma-Aldrich Corp.) as standards and Dye Reagent Concentrate (manufactured by Bio-Rad Laboratories, Inc.).
2-2 Receptor Binding Experiment
50 μl of [^3H] 8-OH-DPAT (final concentration: 0.5 nM), 1 μl of a test drug solution, and 149 μl of the h-5-HT1A/CHO membrane preparation (25 μg/well in terms of the amount of the protein) were added into a buffer containing 50 mM Tris-HCl (pH=7.4) and 4 mM CaCl2, and 200 μl in total of the reaction solution was used in the assay. The reaction solution was reacted at room temperature for 30 minutes and then immediately suction-filtered at a low pressure using a glass fiber filter paper. The glass fiber filter paper was washed twice with 250 μl of 50 mM Tris-HCl (pH=7.4) and then added to a counting vial containing 4 ml of ACS-II (manufactured by GE Healthcare (formerly Amersham Biosciences)). Receptor binding-derived radioactivity remaining on the filter paper was measured using a liquid scintillation counter. The nonspecific binding was defined as a binding amount in the presence of 10 μM 8-OH-DPAT.
8-OH-DPAT. Moreover, the Kd value was the binding dissociation constant of [^3H] […] The smaller numeric value of the h-5-HT1A binding inhibition constant Ki means higher affinity for human serotonin 1A receptors.

Sequence of human serotonin 1A receptor (h-5-HT1A) (P08908 whole entry): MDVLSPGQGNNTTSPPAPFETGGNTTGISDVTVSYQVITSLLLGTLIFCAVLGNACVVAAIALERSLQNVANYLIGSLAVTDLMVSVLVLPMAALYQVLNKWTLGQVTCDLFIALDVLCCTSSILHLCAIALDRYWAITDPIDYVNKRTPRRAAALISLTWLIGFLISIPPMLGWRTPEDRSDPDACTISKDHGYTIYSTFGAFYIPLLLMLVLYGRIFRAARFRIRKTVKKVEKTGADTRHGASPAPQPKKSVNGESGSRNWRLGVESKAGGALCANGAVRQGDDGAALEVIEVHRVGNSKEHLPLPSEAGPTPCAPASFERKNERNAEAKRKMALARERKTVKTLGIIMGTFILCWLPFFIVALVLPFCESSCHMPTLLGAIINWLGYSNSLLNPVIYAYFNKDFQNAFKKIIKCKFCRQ
T1 sequence (P10635 whole entry): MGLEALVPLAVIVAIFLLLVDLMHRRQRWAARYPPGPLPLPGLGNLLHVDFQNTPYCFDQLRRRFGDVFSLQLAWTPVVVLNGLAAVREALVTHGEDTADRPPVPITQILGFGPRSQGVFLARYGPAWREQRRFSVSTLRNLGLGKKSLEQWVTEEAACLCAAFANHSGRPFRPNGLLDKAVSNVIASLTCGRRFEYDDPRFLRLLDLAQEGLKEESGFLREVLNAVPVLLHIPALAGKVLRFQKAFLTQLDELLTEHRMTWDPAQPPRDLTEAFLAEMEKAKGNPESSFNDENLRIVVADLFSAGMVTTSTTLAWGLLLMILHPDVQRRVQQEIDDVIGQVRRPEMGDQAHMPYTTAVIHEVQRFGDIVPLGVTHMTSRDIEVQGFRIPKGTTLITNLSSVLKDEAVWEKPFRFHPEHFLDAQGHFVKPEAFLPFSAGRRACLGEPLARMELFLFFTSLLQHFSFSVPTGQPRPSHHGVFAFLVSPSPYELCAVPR

In turn, `O=C1c2cc(CCN3CCC(Cc4ccc(Br)c(O)c4)CC3)ccc2OCC1O` (stereo not shown) [Compound 5-5, 6-{2-[4-(4-Bromo-3-hydroxybenzyl)piperidin-1-yl]ethyl}-3-hydroxy-2,3-dihydro-4H-chromen-4-one] displayed an IC50 against CYP2D6 [1] of 23000 nM. Further, the figures for the Ki in data set [2] and in data set [4] were 11 nM and 1.1 nM, respectively. The CYP2D6 contribution ratio at CYP2D6 [3] is on record as 24%.

Consider `COCCOc1cc(CC2CCN(CCc3ccc4occc(=O)c4c3)CC2)ccc1Br.Cl` [Compound 5-6, 6-(2-{4-[4-Bromo-3-(2-methoxyethoxy)benzyl]piperidin-1-yl}ethyl)-4H -chromen-4-one hydrochloride], for which, at CYP2D6 [1], the IC50 was 28300 nM. The Ki came to 0.27 nM in data set [2] and 2 nM in data set [4]. Also, the CYP2D6 contribution ratio at CYP2D6 [3] is given as 31%.

`Cl.O=c1ccoc2ccc(CCN3CCC(Cc4ccc(Br)c(OCCO)c4)CC3)cc12` [Compound 5-7, 6-(2-{4-[4-Bromo-3-(2-hydroxyethoxy)benzyl]piperidin-1-yl}ethyl)-4H-chromen-4-one hydrochloride] showed an IC50 on CYP2D6 [1] of 34900 nM. Further, the Ki in data set [2] is 3.5 nM; in data set [4], 2.1 nM. Moreover, on CYP2D6 [3], the CYP2D6 contribution ratio was 9.2*) %.

`O=C1CCOc2ccc(CCN3CCC(Cc4ccc(Br)c(O)c4)CC3)cc21` [Compound 5-8, 6-{2-[4-(4-Bromo-3-hydroxybenzyl)piperidin-1-yl]ethyl}-2,3-dihydro-4H-chromen-4-one] returned a 50% inhibitory concentration (IC50) on CYP2D6 [1] of 9900 nM. For the same compound, the figures for the Ki in data set [2] and in data set [4] were 6.5 nM and 1.3 nM, respectively. Besides, the CYP2D6 contribution ratio at CYP2D6 [3] was 98%.

Consider `O=c1ccoc2ccc(CCN3CCC(Cc4ccc(Br)c(O)c4)CC3)cc12` [Compound 5-9, 6-{2-[4-(4-Bromo-3-hydroxybenzyl)piperidin-1-yl]ethyl}-4H-chromen-4-one], for which it took 16800 nM to reach half-maximal inhibition at CYP2D6 [1] (IC50). For the same compound, the results for the Ki in data set [2] and in data set [4] were 1.7 nM and 0.27 nM, respectively. In addition, the CYP2D6 contribution ratio at CYP2D6 [3] amounted to 46%.

Compound `COCCOc1cc(CC2CCN(CCc3ccc4occ(O)c(=O)c4c3)CC2)ccc1Br` [Compound 5-14, 6-(2-{4-[4-Bromo-3-(2-methoxyethoxy)benzyl]piperidin-1-yl}ethyl)-3-hydroxy-4H-chromen-4-one] yielded an IC50 at CYP2D6 [1] of 37600 nM. The Ki in data set [2] was determined as 0.88 nM; in data set [4], 2.5 nM. The CYP2D6 contribution ratio at CYP2D6 [3] was 8%.

With `Oc1cc(CC2CCN(CCc3ccc4c(c3)C(O)CCO4)CC2)ccc1Br` (stereo not shown) [Compound 5-15, 6-{2-[4-(4-Bromo-3-hydroxybenzyl)piperidin-1-yl]ethyl}-3,4-dihydro-2H-chromen-4-ol], at CYP2D6 [1], 40300 nM corresponded to half-maximal inhibition (IC50). The inhibition constant Ki came out at 41 nM in data set [2] and 8.5 nM in data set [4]. Further, at CYP2D6 [3], the CYP2D6 contribution ratio was 0*) %.

A word on the IC50: it is the concentration at which inhibition is half-maximal. High values mean lower potency, low ones higher potency. The Ki is a dissociation constant, usually derived from enzyme kinetics or from competition with a known ligand.
